# Data published in patent US8883199B2, “Administration regime for N-hydroxy-4-{2-[3-(N,N-dimethylaminomethyl)benzofuran-2-ylcarbonylamino]ethoxy}benzamide” (priority 2011, dated 2014).
# Legend:
# [1] = tested on: patients with solid tumours; assay: Clinical Study 1: toxicity and efficacy in monotherapy, two p.o. administration regimes
# Experimental: A clinical study was set up to test the toxicity and efficacy of N-hydroxy-4-{2-[3-(N,N-dimethylaminomethyl)benzofuran-2-ylcarbonylamino]ethoxy}benzamide hydrochloride. 36 patients with solid tumours were included and treated in this study. A first administration regime was tested over a cycle of three weeks, with 14 consecutive days of 2 p.o. administrations 4 hours apart, followed by a week without treatment. Four dosage levels were successively tested from 30 to 75 mg/m^2 (expressed as a salt) twice daily. The acceptability of the various N-hydroxy-4-{2-[3-(N,N-dimethylaminomethyl)-benzofuran-2-ylcarbonylamino]ethoxy}benzamide dose levels were evaluated (especially, haematological toxicities) at the end of the first cycle.
# This cycle can be repeated as many times as necessary for treatment of the cancer.
# [2] = tested on: histone deacetylase (HDAC); details: cited from earlier work
# [3] = tested on: cultured tumour cells; details: cultured tumour cells in vitro; cited from earlier work
# [4] = tested on: xenograft models; details: in vivo; cited from earlier work
smiles,measurement,setting,value
"CN(C)Cc1c(C(=O)NCCOc2ccc(C(=O)NO)cc2)oc2ccccc12 [N-hydroxy-4-{2-[3-(N,N-dimethylaminomethyl)benzofuran-2-ylcarbonylamino]ethoxy}benzamide]",maximum tolerated dose,"[1]; first regime: 14 consecutive days of 2 p.o. administrations 4 hours apart, then a week without treatment, hydrochloride, dose expressed as a salt, 36 patients with solid tumours",75 mg/m^2 twice daily
same,"platelet toxicity, second regime compared with first regime","[1]; human, in vivo",less platelet toxicity than the previous regime
same,reversibility of thrombopenias,"[1]; human, in vivo",reversible
same,toxicities which limited increasing the dose,"[1]; human, in vivo, 3 weeks",grade 4 thrombopenias
same,recommended dose,"[1]; human, in vivo, po, 3 weeks",90 mg/m^2 twice daily
same,maximum tolerated dose,"[1]; second regime: 4 consecutive days of 2 p.o. administrations 4 hours apart, then 3 days without treatment, each of the 3 weeks of a cycle",105 mg/m^2 twice daily
same,histone deacetylase (HDAC) inhibition,[2],powerful
same,apoptosis,[3],induces apoptosis
same,cell growth,[3],inhibition of cell growth
same,tumour growth,[4],inhibits tumour growth
